A word on the Cmax: it is the highest concentration seen after dosing. By Tmax is commonly meant the time at which the peak concentration occurs. The term half-life denotes how long it takes for the measured level to halve. Lower therefore signals fast loss.

Three compounds from patent publication US20250163119A1, “COMPOUNDS FOR THE TREATMENT OF DIABETES OR OBESITY” (Eli Lilly and Company, priority 2023, published 2025) can be followed below.

Series [1] can be described thus: Pharmacokinetics in Yucatan mini-pigs, single subcutaneous or intravenous dose. Type of series: in vivo. The method, then:
Plasma concentrations of compounds were determined by LC/MS methods. For each assay, the compound and an internal standard (IS), were extracted from 100% mouse, rat, pig, or monkey plasma (70 μL) using Isopropanol-Methanol. Two distinct layers were formed upon centrifugation with the compound and the IS located in the supernatant layer. An aliquot of the supernatant (150 μL) was transferred to a Waters Sirocco Protein Precipitation Plate. The supernatant was eluted using a positive pressure manifold. The supernatant was mixed with 100-2 Water-Formic acid (400 μL) in a pretreated Sep-Pak tC18 SPE plate and eluted to waste. The peptide and IS were eluted with Acetonitrile-Formic acid (100 μL) in 2 steps (50 μL each step). The elution (40 μL) from SPE plate was mixed with diluent solution (1.875 μL 5× invitrosol and 3.125 μL 1% formic acid in water, 80 μL). A final sample (10 μl) was loaded onto a Xselect CSH C18 IS column (3.5 μm 2.1×20 mm). The column effluent was directed into a Thermo Fisher Scientific Orbitrap (Exploris 240) mass spectrometer for detection and quantitation.
Male Yucatan mini-pigs were administered a single subcutaneous dose or intravenous dose (19 or 99 nmol/kg) of compound in 40 mM Tris-HCl 5% D-mannitol (pH 8) at a volume of 0.01 or 0.05 mL/kg. Blood was collected from each animal at 0.083 (IV only), 0.5, 3, 6, 24, 48, 72, 96, 168, 240, 336, 408, and 504 hours postdose for pharmacokinetic characterization.

The subject of series [2] is MHC-II presented peptides on human dendritic cells. The series is described as follows: MAPPS assay (MHC-Associated Peptide Proteomics). The series is classed as cell-based. On the procedure:
MAPPS profiles the MHC-II presented peptides on human dendritic cells treated with tested molecules. CD14+ cells, isolated from the PBMCs of normal human donors, were cultured and differentiated into immature DCs by incubation with IL-4 and GM-CSF. On day 4, culture media was replaced with fresh media containing tested molecules. On day 5, LPS was added to transform the cells into mature DCs. On day 6, cells were lysed in RIPA buffer with protease inhibitors. Immunoprecipitation of MHC-II complexes were performed using biotinylated anti-MHC-II antibody coupled to streptavidin beads. The bound complex was eluted and filtered. The isolated MHC-II peptides were analyzed by a mass spectrometer. Peptide identifications were generated by an internal proteomics pipeline using search algorithms with no enzyme and a bovine/human database with test sequences appended to the database. A KNIME workflow was used to process the identification files from the samples. Peptides identified from the test articles were aligned against the parent sequence of the test molecule. The output was used to determine the percentage of donors displaying MHC-II peptides from regions of the test molecule. Polypeptides comprising SEQ ID NOs:54, 49, 50, 29, 41, 45, 1, 22, 25 were tested in the MAPPs assay. […] Depending on the donors, up to three major clusters were observed, each slightly shifted from the others, altogether spanning residues 1-33.

Setting [3] is: Yucatan mini-pig, minipig, plasma, sc, male Yucatan pigs, single subcutaneous dose 19 nmol/kg, Mean, read-out: AUC0-inf.
Setting [4] is: Yucatan mini-pig, minipig, plasma, sc, male Yucatan pigs, single subcutaneous dose 19 nmol/kg, Mean, read-out: Cmax.
The mark [5] stands for this setting: male Yucatan pigs, single subcutaneous dose 19 nmol/kg, individual animal.
Setting [6] is: male, Yucatan mini-pig, minipig, plasma, iv, 19 nmol/kg, single intravenous dose 19 nmol/kg, individual animal.
Setting [7] is: male, Yucatan mini-pig, minipig, plasma, iv, 19 nmol/kg, single intravenous dose 19 nmol/kg, mean.
Setting [8] is: male, Yucatan mini-pig, minipig, plasma, sc, 19 nmol/kg, single subcutaneous dose 19 nmol/kg, Mean.
The mark [9] stands for this setting: male, Yucatan mini-pig, minipig, plasma, sc, 19 nmol/kg, single subcutaneous dose 19 nmol/kg, Mean, read-out: CL/F (converted).
[10] abbreviates: male, Yucatan mini-pig, minipig, plasma, sc, 19 nmol/kg, single subcutaneous dose 19 nmol/kg, Mean, read-out: Tmax.
[11] abbreviates: male, Yucatan mini-pig, minipig, plasma, sc, 19 nmol/kg, single subcutaneous dose 19 nmol/kg, individual animal.
Setting [12] is: minipig, plasma, single intravenous dose 19 nmol/kg, male Yucatan pigs, mean, read-out: AUC0-inf.
Setting [13] is: minipig, plasma, single intravenous dose 19 nmol/kg, male Yucatan pigs, mean, read-out: C0.
Setting [14] is: single intravenous dose 19 nmol/kg, male Yucatan pigs, individual animal.

“And” between values parts separate entries of the source, which are not always exact repeats. Identical values can stand only once. Like-named read-outs stand apart in the source and are kept apart here. *1 amine or outer side, *2 acyl side, *3 side chain or, on linkers, in order; H or OH if unused. Where a SMILES comes first, the peptide text is derived from it. Side-chain parts run from the residue outwards. [ ]: non-standard residue; d: D form. The star is where a group is joined. C20 diacid = O=C(O)CCCCCCCCCCCCCCCCCCC(=O)*; γGlu = O=C(O)[C@H](CCC(=O)[*:2])N[*:1]; εLys = N[C@@H](CCCCN[*:1])C(=O)[*:2]; NMeI = CC[C@H](C)[C@H](NC)C(=O)O; αMeL = CC(C)C[C@](C)(N)C(=O)O; AEEA = NCCOCCOCC(=O)O; Aib = CC(C)(N)C(=O)O

For the compound “Ac-PPPIVTS[αMeL]DVPT[Aib][αMeL]LQKLLEQERAEKARQQAK([γGlu-AEEA-εLys-C20 diacid])EAAEILAQV-NH2 [SEQ ID NO: 48, Ac-PPPIVTS αMeL DVPT Aib αMeL LQKLLEQERAEKARQQAK(γE-(2-[2-(2-Amino-ethoxy)-ethoxy]-acetyl)-ϵK-CO-(CH2)18-CO2H)EAAEILAQV-NH2]”, the AUC0-inf in series [1] (setting [3]) is 32.5 µM·h; in series [1] (setting [5]), 29.3 µM·h and 35.6 µM·h; in series [1] (setting [12]) it was 36.9 µM·h; in series [1] (setting [14]), 32.5 µM·h and 41.2 µM·h. Besides, the peak concentration (Cmax) in series [1] (setting [4]) was 149 nM; in series [1] (setting [5]), 140 nM and 157 nM. Moreover, the “CL/F” value in series [1] (setting [5]) was 13.6 mL/day/kg; in series [1] (setting [9]) it was 14.6 mL/day/kg; in series [1] (male, Yucatan mini-pig, minipig, plasma, sc, 19 nmol/kg, single subcutaneous dose 19 nmol/kg, individual animal, read-out: CL/F (converted)), 15.7 mL/day/kg. Also, the “T1/2” value in series [1] (setting [5]) is 66.8 h; in series [1] (setting [14]), 89.2 h. In addition, the time of peak concentration (Tmax) in series [1] (setting [5]) is 48 h and 6.0 h; in series [1] (setting [10]) it was 27 h. Also, the results for the clearance in series [1] (setting [6]) and in series [1] (setting [7]) were 13.9 mL/day/kg and 12.5 mL/day/kg, respectively. In addition, the half-life in series [1] (setting [6]) is 86.7 h; in series [1] (setting [7]) it was 88 h; in series [1] (setting [8]) it was 68.5 h; in series [1] (setting [11]), 70.1 h. Also, the C0 in series [1] (setting [13]) is 943 nM; in series [1] (setting [14]), 899 nM and 987 nM. This compound displayed a CL in series [1] (setting [14]) of 11 mL/day/kg.

Turning to “Ac-GSPSIVTS[αMeL]DVPT[Aib][αMeL]LQKLLEQERAEKARQQAK([γGlu-AEEA-εLys-C20 diacid])EAAEILAQV-NH2 [SEQ ID NO: 2, Ac-GSPSIVTS αMeL DVPT Aib αMeL LQKLLEQERAEKARQQAK(γE-(2-[2-(2-Amino-ethoxy)-ethoxy]-acetyl)-ϵK-CO-(CH2)18-CO2H)EAAEILAQV-NH2]”, the AUC0-inf in series [1] (setting [3]) was 18.1 µM·h; in series [1] (setting [5]) it was 24.4 µM·h and 11.7 µM·h; in series [1] (setting [12]) it was 30.9 µM·h; in series [1] (setting [14]), 28.9 µM·h and 32.8 µM·h. The Cmax in series [1] (setting [4]) is 107 nM; in series [1] (setting [5]) it was 154 nM and 60.4 nM. In addition, the “CL/F” value in series [1] (setting [5]) was 18.9 mL/day/kg and 39.1 mL/day/kg; in series [1] (setting [9]), 29 mL/day/kg. The entries for the “T1/2” value in series [1] (setting [5]) and in series [1] (setting [14]) were 90.8 h and 75.1 h, respectively. Also, the “Tmax” value was 6 h and 96 h in series [1] (setting [5]); 51 h in series [1] (setting [10]). Also, the clearance was 15.6 mL/day/kg in series [1] (setting [6]) and 14.6 mL/day/kg in series [1] (setting [7]). For the same compound, the half-life in series [1] (setting [6]) is 95.4 h; in series [1] (setting [7]), 85.3 h; in series [1] (setting [8]), 80.8 h; in series [1] (setting [11]) it was 70.7 h. The C0 is 694 nM in series [1] (setting [13]); 809 nM and 578 nM in series [1] (setting [14]). Further, the CL in series [1] (setting [14]) turned out to be 13.7 mL/day/kg.

Turning to `CC[C@H](C)[C@H](NC)C(=O)N[C@H](C(=O)N[C@@H](CC(C)C)C(=O)N[C@@H](CO)C(=O)N[C@@H](CC(C)C)C(=O)N[C@@H](CC(=O)O)C(=O)N[C@H](C(=O)N1CCC[C@H]1C(=O)N[C@H](C(=O)NCC(=O)N[C@@H](CC(C)C)C(=O)N[C@@H](CC(C)C)C(=O)N[C@@H](CCC(N)=O)C(=O)N[C@H](C(=O)N[C@@H](CC(C)C)C(=O)N[C@@H](CC(C)C)C(=O)N[C@@H](CCC(=O)O)C(=O)N[C@@H](CCC(N)=O)C(=O)N[C@@H](CCC(=O)O)C(=O)N[C@@H](CCCCN)C(=O)N[C@@H](CCC(N)=O)C(=O)N[C@@H](CCC(=O)O)C(=O)N[C@@H](CCCCN)C(=O)N[C@@H](CCC(=O)O)C(=O)N[C@@H](CCCCN)C(=O)N[C@@H](CCC(N)=O)C(=O)N[C@@H](CCC(N)=O)C(=O)N[C@@H](C)C(=O)N[C@@H](CCCCNC(=O)COCCOCCNC(=O)COCCOCCNC(=O)CC[C@H](NC(=O)CC[C@H](NC(=O)CCCCCCCCCCCCCCCCCCC(=O)O)C(=O)O)C(=O)O)C(=O)N[C@H](C(=O)N[C@@H](CC(N)=O)C(=O)N[C@@H](C)C(=O)N[C@@H](CCC(N)=O)C(=O)N[C@H](C(=O)N[C@@H](CC(C)C)C(=O)N[C@@H](C)C(=O)N[C@@H](CCC(N)=O)C(=O)N[C@H](C(N)=O)C(C)C)[C@@H](C)CC)[C@@H](C)O)[C@@H](C)CC)[C@@H](C)CC)C(C)C)C(C)C` [SEQ ID NO: 54] (H-[NMeI]VLSLDVPIGLLQILLEQEKQEKEKQQAK([AEEA-AEEA-γGlu-γGlu-C20 diacid])TNAQILAQV-NH2), the “MAPPS Assay >10 donors with diverse MHC” value in series [2] (donors displaying MHC-II peptides / donors tested) is recorded as 7/10; in series [2] (percentage of donors displaying MHC-II peptides) it was 70%. Also, the “peptides displayed on MHC-II complexes” value in series [2] (human dendritic cells from normal donors) is listed as “at least one peptide cluster on MHC-II complexes in a subset of donors”.
